Data published in PubChem BioAssay (NCI).
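Cultured in 96-well plates, cells were exposed to test compound for 48 hours across five concentrations. TGI: concentration producing complete growth inhibition.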

What was measured:
Test in all cases: inhibition of tumour cell growth, NCI panel, 48 h
SF-295 CNS = system: SF-295 CNS
MOLT-4 leukemia = system: MOLT-4 leukemia
NCI/ADR-RES ovarian = system: NCI/ADR-RES ovarian
SW-620 colon = system: SW-620 colon
SF-268 CNS = system: SF-268 CNS
UO-31 renal = system: UO-31 renal
SNB-75 CNS = system: SNB-75 CNS
MDA-MB-231 breast = system: MDA-MB-231 breast
TK-10 renal = system: TK-10 renal
NCI-H522 lung = system: NCI-H522 lung
BT-549 breast = system: BT-549 breast
NCI-H226 lung = system: NCI-H226 lung
M14 melanoma = system: M14 melanoma
KM12 colon = system: KM12 colon
MALME-3M melanoma = system: MALME-3M melanoma
HOP-92 NSCLC = system: HOP-92 NSCLC
UACC-257 melanoma = system: UACC-257 melanoma
NCI-H460 lung = system: NCI-H460 lung
OVCAR-5 ovarian = system: OVCAR-5 ovarian
SK-MEL-28 melanoma = system: SK-MEL-28 melanoma
A498 renal = system: A498 renal
HT29 colon = system: HT29 colon
SNB-19 CNS = system: SNB-19 CNS
EKVX NSCLC = system: EKVX NSCLC
RPMI-8226 leukemia = system: RPMI-8226 leukemia
HCT-15 colon = system: HCT-15 colon
MDA-N = system: MDA-N
A549 NSCLC = system: A549 NSCLC
U251 CNS = system: U251 CNS
OVCAR-8 ovarian = system: OVCAR-8 ovarian
OVCAR-4 ovarian = system: OVCAR-4 ovarian
OVCAR-3 ovarian = system: OVCAR-3 ovarian
HCT-116 colon = system: HCT-116 colon
LOX IMVI melanoma = system: LOX IMVI melanoma
NCI-H23 lung = system: NCI-H23 lung
IGROV1 ovarian = system: IGROV1 ovarian
RXF 393 renal = system: RXF 393 renal
MDA-MB-435 = system: MDA-MB-435
T-47D breast = system: T-47D breast
786-0 renal = system: 786-0 renal
HOP-62 NSCLC = system: HOP-62 NSCLC
ACHN renal = system: ACHN renal
DU-145 prostate = system: DU-145 prostate
SK-OV-3 ovarian = system: SK-OV-3 ovarian
SK-MEL-5 melanoma = system: SK-MEL-5 melanoma
CAKI-1 renal = system: CAKI-1 renal
SN12C renal = system: SN12C renal
SF-539 CNS = system: SF-539 CNS
COLO 205 colon = system: COLO 205 colon
K-562 leukemia = system: K-562 leukemia
HCC-2998 colon = system: HCC-2998 colon
HL-60(TB) leukemia = system: HL-60(TB) leukemia
HS 578T breast = system: HS 578T breast
CCRF-CEM leukemia = system: CCRF-CEM leukemia
MCF7 breast = system: MCF7 breast
UACC-62 melanoma = system: UACC-62 melanoma
PC-3 prostate = system: PC-3 prostate
SR leukemia = system: SR leukemia

CCCCCCCCCC(=O)NC(CCC(=O)N(CCNC(=O)c1nc(-c2ccccc2)oc1-c1ccccc1)Cc1ccccc1)C(=O)O (stereo unspecified)
TGI (SF-295 CNS): 32.8 µM
TGI (MOLT-4 leukemia): > 100 µM
TGI (NCI/ADR-RES ovarian): 33.3 µM
TGI (SW-620 colon): 41.8 µM
TGI (SF-268 CNS): 34.6 µM
TGI (UO-31 renal): 28.5 µM
TGI (SNB-75 CNS): 29.6 µM
TGI (MDA-MB-231 breast): 40.6 µM
TGI (TK-10 renal): 53.6 µM
TGI (NCI-H522 lung): 34.3 µM
TGI (BT-549 breast): 33.5 µM
TGI (NCI-H226 lung): 55.5 µM
TGI (M14 melanoma): 28.3 µM
TGI (KM12 colon): 46.6 µM
TGI (MALME-3M melanoma): 34.8 µM
TGI (HOP-92 NSCLC): 34.8 µM
TGI (UACC-257 melanoma): 54.7 µM
TGI (NCI-H460 lung): > 100 µM
TGI (OVCAR-5 ovarian): 31.7 µM
TGI (SK-MEL-28 melanoma): 37.9 µM
TGI (A498 renal): 39.7 µM
TGI (HT29 colon): 32.3 µM
TGI (SNB-19 CNS): 31.8 µM
TGI (EKVX NSCLC): 35.1 µM
TGI (RPMI-8226 leukemia): 79 µM
TGI (HCT-15 colon): 29.6 µM
TGI (MDA-N): 36.4 µM
TGI (A549 NSCLC): 31.9 µM
TGI (U251 CNS): 35.8 µM
TGI (OVCAR-8 ovarian): 35.5 µM
TGI (OVCAR-4 ovarian): 75.2 µM
TGI (OVCAR-3 ovarian): 30.1 µM
TGI (HCT-116 colon): 32.5 µM
TGI (LOX IMVI melanoma): 35.9 µM
TGI (NCI-H23 lung): 33.9 µM
TGI (IGROV1 ovarian): 39.8 µM
TGI (RXF 393 renal): 36.8 µM
TGI (MDA-MB-435): 38.3 µM
TGI (T-47D breast): 47.7 µM
TGI (786-0 renal): 32 µM
TGI (HOP-62 NSCLC): 30.5 µM
TGI (ACHN renal): 38 µM
TGI (DU-145 prostate): 43.7 µM
TGI (SK-OV-3 ovarian): 30.7 µM
TGI (SK-MEL-5 melanoma): 29.7 µM
TGI (CAKI-1 renal): 31.2 µM
TGI (SN12C renal): 37.6 µM
TGI (SF-539 CNS): 41.7 µM
TGI (COLO 205 colon): 36.8 µM

CC(C)[C@@H]1CC[C@@H](C)C[C@H]1OC(=O)/C=C1\C(C(=O)O[C@@H]2C[C@H](C)CC[C@H]2C(C)C)[C@H]2C=C[C@@H]1O2 (stereo partly specified)
TGI (SF-295 CNS): > 100 µM
TGI (MOLT-4 leukemia): > 100 µM
TGI (NCI/ADR-RES ovarian): > 100 µM
TGI (SW-620 colon): > 100 µM
TGI (SF-268 CNS): > 100 µM
TGI (K-562 leukemia): > 100 µM
TGI (HCC-2998 colon): > 100 µM
TGI (UO-31 renal): > 100 µM
TGI (SNB-75 CNS): > 100 µM
TGI (HL-60(TB) leukemia): 76.1 µM
TGI (MDA-MB-231 breast): > 100 µM
TGI (TK-10 renal): > 100 µM
TGI (NCI-H522 lung): > 100 µM
TGI (HS 578T breast): > 100 µM
TGI (NCI-H226 lung): > 100 µM
TGI (M14 melanoma): > 100 µM
TGI (KM12 colon): > 100 µM
TGI (MALME-3M melanoma): > 100 µM
TGI (HOP-92 NSCLC): > 100 µM
TGI (UACC-257 melanoma): > 100 µM
TGI (NCI-H460 lung): > 100 µM
TGI (CCRF-CEM leukemia): > 100 µM
TGI (OVCAR-5 ovarian): > 100 µM
TGI (SK-MEL-28 melanoma): > 100 µM
TGI (A498 renal): > 100 µM
TGI (HT29 colon): > 100 µM
TGI (SNB-19 CNS): > 100 µM
TGI (EKVX NSCLC): > 100 µM
TGI (MCF7 breast): 71.6 µM
TGI (RPMI-8226 leukemia): > 100 µM
TGI (HCT-15 colon): > 100 µM
TGI (MDA-N): > 100 µM
TGI (A549 NSCLC): > 100 µM
TGI (U251 CNS): > 100 µM
TGI (OVCAR-8 ovarian): > 100 µM
TGI (OVCAR-4 ovarian): > 100 µM
TGI (UACC-62 melanoma): > 100 µM
TGI (OVCAR-3 ovarian): > 100 µM
TGI (HCT-116 colon): > 100 µM
TGI (LOX IMVI melanoma): > 100 µM
TGI (NCI-H23 lung): > 100 µM
TGI (IGROV1 ovarian): > 100 µM
TGI (PC-3 prostate): > 100 µM
TGI (RXF 393 renal): > 100 µM
TGI (MDA-MB-435): > 100 µM
TGI (T-47D breast): > 100 µM
TGI (786-0 renal): > 100 µM
TGI (HOP-62 NSCLC): > 100 µM
TGI (ACHN renal): > 100 µM
TGI (DU-145 prostate): > 100 µM
TGI (SK-OV-3 ovarian): > 100 µM
TGI (SK-MEL-5 melanoma): > 100 µM
TGI (CAKI-1 renal): > 100 µM
TGI (SN12C renal): > 100 µM
TGI (SF-539 CNS): > 100 µM
TGI (COLO 205 colon): > 100 µM
TGI (SR leukemia): > 100 µM
